# From patent publication US11203633B2, “Polynucleotides encoding antibodies or antigen binding fragments thereof that bind pseudomonas perv” (priority 2011, dated 2021)
# How the values were obtained:
# [1] = system: Psl exopolysaccharide (P. aeruginosa PAO1 and isogenic mutants); test: Indirect ELISA / FACS binding to PAO1 and isogenic mutants; design: species or system Pseudomonas aeruginosa; conditions: for binding (indirect ELISA): FIG. 3A; for binding (ELISA): FIG. 3E
# From the text: In addition, duplication of VH CDR3 loop sequences in the libraries (a measure of clonal enrichment during selection), was also found to be higher in the patient library, reaching 88-92%, compared to 15-25% in the naïve library at round 3 (FIG. 1D). Individual scFv phage from affinity selections were next screened by ELISA for reactivity to P. aeruginosa heterologous serotype strains (FIG. 1E). ELISA plates (Nunc; MAXISORP™) were coated with P. aeruginosa strains from overnight cultures as described (DiGiandomenico, A., et al., Infect Immun 72, 7012-7021 (2004)). Diluted antibodies were added to blocked plates for 1 hour, washed, and treated with HRP-conjugated anti-human secondary antibodies for 1 hour followed by development and analysis as described (Ulbrandt, N. D., et al., J Virol 80, 7799-7806 (2006)). The dominant species of phage obtained from whole cell selections with both libraries yielded serotype specific reactivity (data not shown).
# For IgG expression, the VH and VL chains of selected antibodies were cloned into human IgG1 expression vectors, co-expressed in HEK293 cells, and purified by protein A affinity chromatography as described (Persic, L., et al., Gene 187, 9-18 (1997)). Human IgG1 antibodies made with the variable regions from these selected serotype independent phage were confirmed for P. aeruginosa specificity and prioritized for subsequent analysis by whole cell binding to dominant clinically relevant serotypes by FACS analysis (FIG. 1F), since this method is more stringent than ELISA. For the flow cytometry based binding assays mid-log phase P. aeruginosa strains were concentrated in PBS to an OD650 of 2.0. After incubation of antibody (10 μg/mL) and bacteria (˜1×10^7 cells) for 1 hr at 4° C. with shaking, washed cells were incubated with an ALEXA FLUOR 647® goat anti-human IgG antibody (Invitrogen, Carlsbad, Calif.) for 0.5 hr at 4° C. Washed cells were stained with BACLIGHT™ green bacterial stain as recommended (Invitrogen, Carlsbad, Calif.). Samples were run on a LSR II flow cytometer (BD Biosciences) and analyzed using BD FacsDiva (v. 6.1.3) and FlowJo (v. 9.2; TreeStar).
# This example describes identification of the target of anti-P. aeruginosa antibodies derived from phenotypic screening. Target analysis was performed to test whether the serotype independent antibodies targeted protein or carbohydrate antigens. […] Isogenic mutants were constructed in genes responsible for 0-antigen, alginate, and LPS core biosynthesis; wbpL (O-antigen-deficient); wbpL/algD (O-antigen and alginate deficient); rmlC (O-antigen-deficient and truncated outer core); and galU (O-antigen-deficient and truncated inner core). P. aeruginosa mutants were constructed based on the allele replacement strategy described by Schweizer (Schweizer, H. P., Mol Microbiol 6, 1195-1204 (1992); Schweizer, H. D., Biotechniques 15, 831-834 (1993)). Vectors were mobilized from E. coli strain 517.1 into P. aeruginosa strain PAO1; recombinants were isolated as described (Hoang, T. T., et al., Gene 212, 77-86 (1998)). Gene deletion was confirmed by PCR. P. aeruginosa mutants were complemented with pUCP30T-based constructs harboring wild type genes. […] The rmlC and galU genes were recently shown to be required for biosynthesis of the Psl exopolysaccharide, a repeating pentasaccharide polymer consisting of D-mannose, L-rhamnose, and D-glucose. Cam-003 binding to an isogenic pslA knockout PAO1ΔpslA, was tested, as pslA is required for Psl biosynthesis (Byrd, M. S., et al., Mol Microbiol 73, 622-638 (2009)). Binding of Cam-003 to PAO1ΔpslA was abolished when tested by ELISA (FIG. 3B) and FACS (FIG. 3C), while the LPS molecule in this mutant was unaffected (FIG. 3D). Binding of Cam-003 was restored in a PAO1ΔwbpL/algD/pslA triple mutant complemented with pslA (FIG. 3E) as was the ability of Cam-003 to mediate opsonic killing to complemented PAO1ΔpslA in contrast to the mutant (FIGS. 3F and 3G). […]
# [2] = system: luminescent P. aeruginosa serogroup 011 strain (9882-80.lux); test: OPK assay, 9882-80.lux; format: cell-based, Pseudomonas aeruginosa; conditions: strain 9882-80 (O11); FIG. 2B
# Description: This example describes the evaluation of prioritized human IgG1 antibodies to promote OPK of P. aeruginosa. […] OPK assays were performed as described in (DiGiandomenico, A., et al., Infect Immun 72, 7012-7021 (2004)), with modifications. Briefly, assays were performed in 96-well plates using 0.025 ml of each OPK component; P. aeruginosa strains; diluted baby rabbit serum; differentiated HL-60 cells; and monoclonal antibody. In some OPK assays, luminescent P. aeruginosa strains, which were constructed as described (Choi, K. H., et al., Nat Methods 2, 443-448 (2005)), were used. Luminescent OPK assays were performed as described above but with determination of relative luciferase units (RLUs) using a Perkin Elmer ENVISION Multilabel plate reader (Perkin Elmer).
# The ability of the WapR-004 and Cam-003 antibodies to mediate OPK activity against another clinically relevant 0-antigen serotype strain, 9882-80.lux, was evaluated.
substance,measurement,setting,value
"Cam-003: anti-Psl human IgG1 monoclonal antibody; VH SEQ ID NO:1, VL SEQ ID NO:2",reactivity to LPS purified from PAO1,[1],not observed
same,binding (indirect ELISA),[1]; PAO1 rmlC and galU mutants,abolished
same,binding (indirect ELISA),[1]; PAO1 wbpL or wbpL/algD double mutant,unaffected
same,binding (ELISA and FACS),"[1]; PAO1ΔpslA, FIG. 3B-C",abolished
same,binding (ELISA),[1]; PAO1ΔwbpL/algD/pslA triple mutant complemented with pslA,restored
same,binding (ELISA),[1]; Pel exopolysaccharide mutant,unaffected
same,OPK activity,[2],OPK activity extends to strain 9882-80 (O11)
